Assay results from the supplement of paper PMC10331698.
± gives the standard deviation of the averaged measurements.

Key:
Assay in all cases: level (log10 ratio to DMSO vehicle control); higher = higher biomarker level / cell amount than vehicle control
Conditions in all cases: in DMSO
Perfluorooctanamidine = compound: N=C(N)C(F)(F)C(F)(F)C(F)(F)C(F)(F)C(F)(F)C(F)(F)C(F)(F)F [Perfluorooctanamidine]
Method: (§1)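 BioMAP Diversity Plus panel of 12 human primary cell co-culture systems (3C, 4H, LPS, SAg, BT, BF4T, BE3C, CASM3C, HDF3CGF, KF3CT, MyoF, Mphg). Compounds were added 1 h before stimulation and left for 24 h (MyoF 48 h; BT 72 h for soluble read-outs or 6 d for IgG). Biomarkers were read by ELISA, cytotoxicity by SRB, PBMC viability and proliferation by Alamar Blue. Each well value was divided by the mean of 8 DMSO control wells on the same plate and log10 transformed; duplicate blinded samples were tested at 4 concentrations.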

Perfluorohexanoic acid = compound: O=C(O)C(F)(F)C(F)(F)C(F)(F)C(F)(F)C(F)(F)F [Perfluorohexanoic acid]
Method: as §1

[1] = compound: O=C(O)CCC(F)(F)C(F)(F)C(F)(F)F [3:3 Fluorotelomer carboxylic acid]
Method: as §1

[2] = compound: OCC(F)(F)C(F)(F)C(F)(F)C(F)(F)C(F)(F)C(F)F [1H,1H,7H-Dodecafluoro-1-heptanol]
Method: as §1

Test System | level (log10) (Perfluorooctanamidine; 6700 nM) | level (log10) (Perfluorooctanamidine; 20000 nM) | level (log10) (Perfluorooctanamidine; 60000 nM) | level (log10) (Perfluorohexanoic acid; 6700 nM) | level (log10) (Perfluorohexanoic acid; 20000 nM) | level (log10) (Perfluorohexanoic acid; 60000 nM) | level (log10) ([1]; 6700 nM) | level (log10) ([1]; 20000 nM) | level (log10) ([1]; 60000 nM) | level (log10) ([2]; 6700 nM) | level (log10) ([2]; 20000 nM) | level (log10) ([2]; 60000 nM)
lMphg:CXCL8/IL-8 | 0.011 | 0.0425 ± 0.019 | 0.175 | 0.045 ± 0.024 | 0.0515 ± 0.036 | 0.074 ± 0.023 | -0.0215 ± 0.059 | -0.001 ± 0.051 | 0.025 ± 0.02 | -0.003 ± 0.013 | 0.017 ± 0.025 | 0.042 ± 0.028
HDF3CGF:TIMP-2 | -0.008 ± 0.027 | -0.012 ± 0.031 | -0.018 | 0.033 ± 0.0014 | 0.021 ± 0.017 | 0.025 ± 0.037 | -0.0075 ± 0.023 | -0.0015 ± 0.0035 | -0.0195 ± 0.0064 | -0.0025 ± 0.0092 | -0.0035 ± 0.0021 | 0.0025 ± 0.022
CASM3C:PAI-I | 0.0055 ± 0.012 | 0.0015 ± 0.0064 | 0.022 | 0.0005 ± 0.005 | -0.003 ± 0.0042 | 0.0095 ± 0.005 | -0.002 ± 0.0057 | -0.0035 ± 0.00071 | 0.009 ± 0.0014 | 0.004 ± 0.0057 | -0.0005 ± 0.0064 | 0.0045 ± 0.011
HDF3CGF:CXCL9/MIG | 0.0055 ± 0.023 | -0.003 ± 0.018 | 0.018 | 0.004 ± 0.0099 | 0.001 ± 0.0099 | -0.019 ± 0.034 | -0.0115 ± 0.018 | -0.005 ± 0.0057 | 0.0295 ± 0.025 | 0.0015 ± 0.013 | -0.022 ± 0.038 | 0.011 ± 0.011
MyoF:Collagen IV | 0.0195 ± 0.03 | 0.044 ± 0.018 | 0.117 | 0.0245 ± 0.0064 | 0.0165 ± 0.0064 | 0.0345 ± 0.037 | -0.0275 ± 0.042 | -0.029 ± 0.031 | -0.004 ± 0.035 | -0.0115 ± 0.015 | -0.0025 ± 0.018 | 0.011 ± 0.025
CASM3C:CXCL9/MIG | -0.005 ± 0.013 | -0.017 ± 0.024 | 0.069 | 0.008 ± 0.0057 | 0.001 ± 0.0042 | 0.012 ± 0.021 | 0.004 ± 0.0028 | 0.008 ± 0.0099 | 0.002 | 0.002 ± 0.0071 | 0.007 ± 0.0014 | 0.0195 ± 0.005
HDF3CGF:SRB | -0.01 ± 0.017 | 0.0155 ± 0.0035 | -0.048 | 0.0135 ± 0.013 | 0.0305 ± 0.022 | -0.0055 ± 0.0092 | 0.029 ± 0.061 | 0.0105 ± 0.0078 | 0.011 ± 0.05 | -0.0345 ± 0.033 | -0.007 ± 0.05 | -0.0055 ± 0.057
MyoF:CXCL8/IL-8 | -0.003 ± 0.041 | 0.03 ± 0.0099 | 0.043 | -0.0015 ± 0.016 | -0.0075 ± 0.026 | -0.015 ± 0.05 | -0.016 ± 0.037 | -0.0275 ± 0.05 | 0.0145 ± 0.093 | -0.034 ± 0.051 | 0 ± 0.1 | 0.0265 ± 0.063
lMphg:CD69 | -0.048 ± 0.0028 | -0.052 ± 0.0085 | 0.029 | 0.005 ± 0.035 | -0.003 ± 0.0071 | -0.017 ± 0.0042 | 0.013 ± 0.013 | 0.053 ± 0.047 | 0.035 ± 0.037 | -0.0275 ± 0.0021 | -0.0305 ± 0.0064 | -0.018 ± 0.075
BE3C:MMP-1 | 0.0525 ± 0.03 | 0.057 ± 0.044 | 0.262 | -0.0075 ± 0.0064 | 0 ± 0.011 | 0.0275 ± 0.012 | -0.006 ± 0.037 | -0.0235 ± 0.011 | 0.0125 ± 0.044 | 0.0045 ± 0.022 | 0 ± 0.025 | 0.029 ± 0.0057
lMphg:CD40 | -0.016 ± 0.023 | -0.0145 ± 0.005 | -0.046 | 0.0105 ± 0.0078 | 0.016 ± 0.02 | -0.008 ± 0.0028 | -0.0195 ± 0.064 | -0.028 ± 0.067 | 0.0065 ± 0.018 | -0.047 ± 0.082 | -0.0425 ± 0.047 | -0.061 ± 0.071
BE3C:Keratin 8/18 | -0.0165 ± 0.0021 | -0.014 ± 0.0057 | 0.007 | -0.017 ± 0.0057 | -0.0125 ± 0.0035 | -0.0175 ± 0.021 | 0.0025 ± 0.0021 | -0.003 ± 0.0042 | -0.023 ± 0.0057 | -0.004 ± 0.0042 | 0.006 ± 0.014 | -0.0135 ± 0.0035
CASM3C:M-CSF | -0.0095 ± 0.021 | -0.025 ± 0.028 | 0.034 | -0.0185 ± 0.019 | -0.0125 ± 0.013 | 0.0105 ± 0.0092 | -0.0055 ± 0.037 | -0.02 ± 0.018 | 0.0185 ± 0.028 | -0.0045 ± 0.0035 | -0.0185 ± 0.0035 | 0.0145 ± 0.039
